The values that follow come from patent US20170008888A1 (KYORIN PHARMACEUTICAL CO., LTD., priority 2014, published 2017).

Holding throughout (assay type): binding
In test [1] the target is T1, ACK (Homo sapiens, UniProt Q07912).
T1 construct: screened for activity against several kinases in Jurkat cells; endogenous in cells; host or cells: Jurkat cell lysate
As to the kind of experiment: Probe-based (AX9989) kinase profiling in Jurkat lysate: ACK. The following applies: screening concentration 1.0 μM; read-out: Kinase inhibition % at indicated screening concentration: ACK. The essentials: (§1)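 Percent inhibition was derived from reduced LC/MS fragment intensities of probe-labeled peptides relative to compound-free controls. Before labeling with 5 μM AX9989, Mn2+-supplemented (20 mM) Jurkat lysate was exposed to compound for 15 min at room temperature.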

The target in test [2] is T2, JAK1 (Homo sapiens, UniProt P23458).
T2 construct: screened for activity against several kinases in Jurkat cells; endogenous in cells; host or cells: Jurkat cell lysate
As to the kind of experiment: Probe-based (AX9989) kinase profiling in Jurkat lysate: JAK1. The following applies: screening concentration 1.0 μM; read-out: Kinase inhibition % at indicated screening concentration: JAK1. The essentials: as §1

In test [3] the test system is AurB or AurC. As to the kind of experiment: Probe-based (AX9989) kinase profiling in Jurkat lysate: AurB or AurC. As to conditions: screening concentration 1.0 μM. The essentials: as §1
Test [4] relates to AMPKa1 or AMPKa2. As to the kind of experiment: Probe-based (AX9989) kinase profiling in Jurkat lysate: AMPKa1 or AMPKa2. The following applies: screening concentration 1.0 μM. Put shortly:
as §1

Test [5] concerns the target T3, AurA (Homo sapiens, UniProt O14965).
T3 construct: screened for activity against several kinases in Jurkat cells; endogenous in cells; host or cells: Jurkat cell lysate
T3 sequence (O14965 1-403): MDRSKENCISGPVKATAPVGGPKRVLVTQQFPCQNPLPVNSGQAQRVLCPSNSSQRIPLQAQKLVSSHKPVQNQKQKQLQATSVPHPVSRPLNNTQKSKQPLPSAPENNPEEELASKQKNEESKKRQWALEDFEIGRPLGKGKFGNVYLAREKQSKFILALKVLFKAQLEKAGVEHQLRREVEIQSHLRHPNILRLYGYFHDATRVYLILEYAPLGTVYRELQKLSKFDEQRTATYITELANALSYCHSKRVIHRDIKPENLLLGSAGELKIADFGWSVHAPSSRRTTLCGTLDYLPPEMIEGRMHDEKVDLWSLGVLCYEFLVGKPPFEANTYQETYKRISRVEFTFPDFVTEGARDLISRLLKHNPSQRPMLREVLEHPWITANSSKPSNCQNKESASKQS
As to the kind of experiment: Probe-based (AX9989) kinase profiling in Jurkat lysate: AurA. As to conditions: screening concentration 1.0 μM; read-out: Kinase inhibition % at indicated screening concentration: AurA. Put shortly: as §1

Test [6] deals with T4, TAO2 (Homo sapiens, UniProt Q9UL54).
T4 construct: screened for activity against several kinases in Jurkat cells; endogenous in cells; host or cells: Jurkat cell lysate
T4 sequence (Q9UL54 1-1235): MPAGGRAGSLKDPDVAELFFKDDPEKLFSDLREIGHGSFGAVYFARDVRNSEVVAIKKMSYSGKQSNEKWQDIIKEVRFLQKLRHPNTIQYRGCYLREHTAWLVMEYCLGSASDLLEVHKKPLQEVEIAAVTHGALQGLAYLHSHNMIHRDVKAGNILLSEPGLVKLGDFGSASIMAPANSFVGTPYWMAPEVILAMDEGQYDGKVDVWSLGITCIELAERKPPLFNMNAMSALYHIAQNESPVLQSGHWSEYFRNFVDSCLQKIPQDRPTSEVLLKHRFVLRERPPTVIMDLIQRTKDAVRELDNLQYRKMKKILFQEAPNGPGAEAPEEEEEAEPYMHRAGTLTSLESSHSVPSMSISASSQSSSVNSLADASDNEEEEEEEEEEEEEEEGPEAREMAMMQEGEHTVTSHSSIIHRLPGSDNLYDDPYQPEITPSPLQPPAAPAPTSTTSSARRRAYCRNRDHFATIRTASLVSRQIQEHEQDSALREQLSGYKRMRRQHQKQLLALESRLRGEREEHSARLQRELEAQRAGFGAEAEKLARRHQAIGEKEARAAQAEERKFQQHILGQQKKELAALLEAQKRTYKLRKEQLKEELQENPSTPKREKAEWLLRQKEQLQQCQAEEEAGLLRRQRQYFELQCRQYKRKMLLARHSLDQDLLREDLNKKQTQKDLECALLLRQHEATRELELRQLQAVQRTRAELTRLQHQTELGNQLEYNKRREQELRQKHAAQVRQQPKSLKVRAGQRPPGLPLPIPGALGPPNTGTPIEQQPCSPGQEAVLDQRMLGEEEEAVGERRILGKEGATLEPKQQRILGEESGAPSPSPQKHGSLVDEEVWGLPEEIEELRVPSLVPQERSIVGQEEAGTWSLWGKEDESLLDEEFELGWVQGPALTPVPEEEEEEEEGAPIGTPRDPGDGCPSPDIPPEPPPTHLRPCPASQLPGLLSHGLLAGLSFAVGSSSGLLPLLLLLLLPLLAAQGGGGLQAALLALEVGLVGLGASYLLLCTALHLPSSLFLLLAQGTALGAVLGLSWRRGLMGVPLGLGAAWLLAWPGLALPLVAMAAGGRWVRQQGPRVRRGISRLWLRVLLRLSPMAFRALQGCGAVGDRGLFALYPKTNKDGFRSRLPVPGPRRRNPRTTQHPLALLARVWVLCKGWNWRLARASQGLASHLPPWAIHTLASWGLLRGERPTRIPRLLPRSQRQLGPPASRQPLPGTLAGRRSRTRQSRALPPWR
Kind of test: Probe-based (AX9989) kinase profiling in Jurkat lysate: TAO2. The following applies: screening concentration 1.0 μM; read-out: Kinase inhibition % at indicated screening concentration: TAO2. The essentials:
as §1

Test [7] concerns the target T5, BRD4 bromodomain domain I [BRD4(1)] (Homo sapiens, UniProt O60885).
T5 construct: BRD4 bromodomain domain I [BRD4(1)]; purchased Cayman Chemicals
Kind of test: BRD4 bromodomain domain 1 inhibition assay (TR-FRET). As to conditions: screening concentration 10 μM. The method, then: The inhibitory activity of test compounds on the bromodomain, BRD4 bromodomain domain I [BRD4(1)], were determined via TR-FRET after a slight modification of the manufacturer's protocol (Cayman Chemicals, Ann Arbor, Mich.). Briefly, compounds were diluted to a 20× ([…]) concentration in DMSO. 100 nL of 20× compounds were then dry stamped into triplicate wells of black, low volume 384 well plates (Aurora Biotechnologies, Carlsbad, Calif.) using the Mosquito liquid handler (TPP Labtech, Melbourn, UK). 20× compounds were then diluted to a 4× (40 μM) concentration in Assay Buffer to result in 2% DMSO content. […] JQ1 at 10 μM or 0.5% DMSO final concentrations were used as the positive and negative controls, respectively, to set the assay window. The fluorescence was read in a time-resolved format on the Biotec Synergy 2 plate reader by exciting the signal at 340 nm and reading emissions at 620 and 670, using a 100 μs delay and 200 μs read window. […] Briefly, TR-FRET ratio values were normalized to the average TR-FRET ratio value given by 10 μM JQ1. […]

Test [8] addresses T6, ERK5 (Homo sapiens, UniProt Q13164).
T6 construct: screened for activity against several kinases in Jurkat cells; endogenous in cells; host or cells: Jurkat cell lysate
As to the kind of experiment: Probe-based (AX9989 acyl phosphate ATP probe) kinase profiling in Jurkat lysate: ERK5. The following applies: for IC50: calculated from percent inhibition of AX9989 labeling and the screening concentration, Jurkat lysate; for inhibition at 1 µM: screening concentration 1.0 μM, read-out: Kinase inhibition % at indicated screening concentration: ERK5. Put shortly: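 ERK5 IC50 values came from percent inhibition at the screening concentration, measured as loss of LC/MS signal of probe-labelled active-site peptides. Compound was added for 15 min at room temperature to Jurkat lysate (5 mg/ml, 20 mM MnCl2) before labelling with AX9989 ATP acyl phosphate probe at 5 μM.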

Test [9] concerns ABL or ARG. As to the kind of experiment: Probe-based (AX9989) kinase profiling in Jurkat lysate: ABL or ARG. The following applies: screening concentration 1.0 μM. The essentials: as §1

The term IC50 denotes the concentration needed to halve the response being measured.

A value given as a limit tells only on which side of the number the result lay.

T2 sequence (P23458 whole entry): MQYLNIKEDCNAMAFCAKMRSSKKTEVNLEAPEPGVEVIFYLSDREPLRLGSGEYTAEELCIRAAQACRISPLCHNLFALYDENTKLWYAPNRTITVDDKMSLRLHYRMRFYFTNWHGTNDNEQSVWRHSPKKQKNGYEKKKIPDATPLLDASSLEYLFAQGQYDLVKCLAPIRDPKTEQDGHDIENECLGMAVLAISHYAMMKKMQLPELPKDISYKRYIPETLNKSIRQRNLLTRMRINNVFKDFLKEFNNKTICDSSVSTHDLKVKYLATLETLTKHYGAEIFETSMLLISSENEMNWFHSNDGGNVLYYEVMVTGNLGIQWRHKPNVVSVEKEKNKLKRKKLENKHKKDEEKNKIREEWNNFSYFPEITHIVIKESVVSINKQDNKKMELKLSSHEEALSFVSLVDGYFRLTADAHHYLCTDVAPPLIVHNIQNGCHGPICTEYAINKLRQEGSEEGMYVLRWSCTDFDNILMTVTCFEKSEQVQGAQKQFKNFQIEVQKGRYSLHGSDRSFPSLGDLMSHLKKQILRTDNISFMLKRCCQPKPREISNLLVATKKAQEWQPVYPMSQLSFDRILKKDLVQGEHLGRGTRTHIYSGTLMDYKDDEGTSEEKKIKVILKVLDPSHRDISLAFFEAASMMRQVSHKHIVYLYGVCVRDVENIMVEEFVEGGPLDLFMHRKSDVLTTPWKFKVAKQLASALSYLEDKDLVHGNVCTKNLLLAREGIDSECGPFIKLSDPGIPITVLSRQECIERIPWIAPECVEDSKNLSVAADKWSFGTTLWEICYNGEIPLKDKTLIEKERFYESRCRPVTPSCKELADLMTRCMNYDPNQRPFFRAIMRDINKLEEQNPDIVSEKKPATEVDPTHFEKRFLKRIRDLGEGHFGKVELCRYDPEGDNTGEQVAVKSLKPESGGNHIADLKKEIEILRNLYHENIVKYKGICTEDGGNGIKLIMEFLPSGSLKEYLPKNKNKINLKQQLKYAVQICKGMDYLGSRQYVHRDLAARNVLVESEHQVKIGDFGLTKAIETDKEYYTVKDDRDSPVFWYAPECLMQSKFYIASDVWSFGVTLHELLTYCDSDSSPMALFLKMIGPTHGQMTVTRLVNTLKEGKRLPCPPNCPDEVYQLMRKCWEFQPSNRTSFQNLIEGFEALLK
T6 sequence (Q13164 whole entry): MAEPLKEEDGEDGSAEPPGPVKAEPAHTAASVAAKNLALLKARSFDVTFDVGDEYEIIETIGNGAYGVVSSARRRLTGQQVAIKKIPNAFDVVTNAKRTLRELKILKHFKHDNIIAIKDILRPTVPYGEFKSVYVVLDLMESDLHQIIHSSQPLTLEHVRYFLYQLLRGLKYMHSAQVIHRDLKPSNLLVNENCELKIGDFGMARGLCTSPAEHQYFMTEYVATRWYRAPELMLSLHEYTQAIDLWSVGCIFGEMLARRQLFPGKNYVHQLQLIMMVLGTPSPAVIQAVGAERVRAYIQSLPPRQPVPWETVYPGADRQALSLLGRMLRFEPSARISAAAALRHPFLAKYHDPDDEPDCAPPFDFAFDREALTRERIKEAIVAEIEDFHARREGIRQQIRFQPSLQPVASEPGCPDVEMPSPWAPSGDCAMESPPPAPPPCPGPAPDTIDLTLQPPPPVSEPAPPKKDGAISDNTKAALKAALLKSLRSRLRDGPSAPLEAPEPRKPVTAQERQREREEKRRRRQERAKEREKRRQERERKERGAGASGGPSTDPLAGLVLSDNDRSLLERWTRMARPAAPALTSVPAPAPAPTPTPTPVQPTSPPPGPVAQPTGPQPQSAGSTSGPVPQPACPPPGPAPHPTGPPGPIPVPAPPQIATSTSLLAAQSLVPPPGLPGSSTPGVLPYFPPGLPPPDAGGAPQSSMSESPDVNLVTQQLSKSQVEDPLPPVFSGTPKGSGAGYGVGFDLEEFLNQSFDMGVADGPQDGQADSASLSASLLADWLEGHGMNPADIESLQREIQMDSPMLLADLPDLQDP
T1 sequence (Q07912 whole entry): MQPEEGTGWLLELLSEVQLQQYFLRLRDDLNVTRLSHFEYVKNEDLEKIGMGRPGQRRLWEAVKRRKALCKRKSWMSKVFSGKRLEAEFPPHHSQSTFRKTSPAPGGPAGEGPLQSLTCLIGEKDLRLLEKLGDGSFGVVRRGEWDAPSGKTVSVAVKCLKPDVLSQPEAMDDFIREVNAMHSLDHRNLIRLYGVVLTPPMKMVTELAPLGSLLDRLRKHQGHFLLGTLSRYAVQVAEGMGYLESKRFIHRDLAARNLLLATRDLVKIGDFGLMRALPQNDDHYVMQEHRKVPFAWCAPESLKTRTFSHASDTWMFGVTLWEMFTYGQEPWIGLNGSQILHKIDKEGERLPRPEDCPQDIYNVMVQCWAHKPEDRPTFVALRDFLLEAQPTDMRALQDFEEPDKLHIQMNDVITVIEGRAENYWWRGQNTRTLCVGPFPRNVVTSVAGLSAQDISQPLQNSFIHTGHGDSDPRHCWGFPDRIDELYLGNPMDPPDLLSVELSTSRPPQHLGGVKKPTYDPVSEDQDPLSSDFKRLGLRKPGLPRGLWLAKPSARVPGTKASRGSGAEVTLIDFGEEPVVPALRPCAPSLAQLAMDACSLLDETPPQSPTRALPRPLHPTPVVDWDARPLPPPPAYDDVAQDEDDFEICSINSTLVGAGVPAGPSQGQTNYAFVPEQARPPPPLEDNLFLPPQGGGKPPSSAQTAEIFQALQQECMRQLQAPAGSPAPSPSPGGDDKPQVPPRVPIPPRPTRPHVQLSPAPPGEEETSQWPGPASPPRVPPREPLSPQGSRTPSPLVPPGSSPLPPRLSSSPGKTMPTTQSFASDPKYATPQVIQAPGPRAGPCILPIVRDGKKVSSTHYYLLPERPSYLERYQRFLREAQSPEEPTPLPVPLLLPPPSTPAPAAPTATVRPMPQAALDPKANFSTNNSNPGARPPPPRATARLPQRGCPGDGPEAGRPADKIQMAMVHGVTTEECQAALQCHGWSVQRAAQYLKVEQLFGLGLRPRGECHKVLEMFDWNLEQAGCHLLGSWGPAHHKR

Consider `CN1CCC(c2ccc(Nc3cc4c(cn3)N(C)C(=O)c3ccccc3N4C)cc2)CC1` [Compound 92], for which the inhibition at 1 µM was no more than 35% in test [1]; 35 to 50% in [2]; no more than 35% in test [5]; 50 to 75% in [6]; greater than 90% in test [8]. The “Kinase inhibition % at indicated screening concentration: AurB or AurC” value (“Kinase inhibition % … AurB or AurC” for short) in test [3] is “C (C is >50% to ≦75%)”. The “Kinase inhibition % at indicated screening concentration: AMPKa1 or AMPKa2” value (shortened to “Kinase inhibition % … AMPKa1 or AMPKa2”) in test [4] was “E (E is ≦35%)”. The inhibition at 10 µM in test [7] is 70 to 85%. Also, the IC50 in test [8] is no more than 50 nM. Besides, the “Kinase inhibition % at indicated screening concentration: ABL or ARG” value (“Kinase inhibition % … ABL or ARG” below) in test [9] was “E (E is ≦35%)”.
With `CC(=O)NC1CCC(Nc2cc3c(cn2)N(C)C(=O)c2ccccc2N3C)CC1` (stereo not drawn) [Compound 98], the inhibition at 1 µM in [1] was no more than 35%; in [2], no more than 35%; in test [5] it was no more than 35%; in test [6], no more than 35%; in test [8], 50 to 75%. Further, the “Kinase inhibition % … AurB or AurC” value in [3] is recorded as “E (E is ≦35%)”. Further, the “Kinase inhibition % … AMPKa1 or AMPKa2” value in test [4] is given as “E (E is ≦35%)”. Also, in test [7], the inhibition at 10 µM is less than 70%. For the same compound, the IC50 in [8] is greater than 500 nM. For the same compound, in [9], the “Kinase inhibition % … ABL or ARG” value was “E (E is ≦35%)”.
On to `CN1C(=O)c2ccccc2N(C)c2cc(N[C@H]3CC[C@H](NS(C)(=O)=O)CC3)ncc21` [Compound 99], for which the inhibition at 1 µM in [1] is no more than 35%; in test [2] it was no more than 35%; in [5], no more than 35%; in [6], no more than 35%; in test [8], 75 to 90%. Also, the “Kinase inhibition % … AurB or AurC” value in test [3] was “E (E is ≦35%)”. Further, the “Kinase inhibition % … AMPKa1 or AMPKa2” value in test [4] is given as “E (E is ≦35%)”. The inhibition at 10 µM in test [7] was 70 to 85%. Further, the IC50 in [8] is 101 to 500 nM. For the same compound, the “Kinase inhibition % … ABL or ARG” value in [9] is recorded as “E (E is ≦35%)”.
